Data set [1] relates to H9. Kind of data set: Inhibitory concentration required to inhibit HIV replication in H9 lymphocytes growth by 50%. In kind it is functional, cell-based. The settings on record: Homo sapiens.
A short description of data set [2]: Therapeutic index(TI) was evaluated (IC50/EC50). As to conditions: read-out: TI.
The subject of data set [3] is H9. Kind of data set: Inhibitory concentration required to inhibit uninfected H9 lymphocytic cell growth by 50%. In kind it is functional, cell-based. The settings on record: Homo sapiens.

Converted amounts (≈) assume the structure as drawn.

On to `COc1cc2c(c3ccccc3n2C)c2c(NCCCO)nccc12`, for which the EC50 with H9 [1] is 0.001 µg/mL (≈ 0.00298 µM). Moreover, the selectivity ratio in data set [2] is 153. The same compound came in with an IC50 in the data set with H9 [3] of 0.15 µg/mL (≈ 0.447 µM).
The corresponding values for `COc1cc2c(c3ccccc3n2C)c2c(NCCN)nccc12` are 0.022 µg/mL (≈ 0.0687 µM), 10.6 and 0.23 µg/mL (≈ 0.718 µM).
The matching figures for `COc1cc2c(c3cc(O)ccc3n2C)c2c(Cl)nccc12`: 1.4 µg/mL (≈ 4.48 µM), 3.6 and 5 µg/mL (≈ 16 µM).
The matching figures for `COc1cc2c(c3ccccc3n2C)c2c(NCCN(C)C)nccc12`: 0.026 µg/mL (≈ 0.0746 µM), 8.9 and 0.23 µg/mL (≈ 0.66 µM).
On to `COc1cc2c(c3cnccc13)c1ccccc1n2C`, for which, in the data set with H9 [1], the EC50 is 0.0054 µg/mL (≈ 0.0206 µM). Besides, in data set [2], the selectivity ratio turned out to be 503. Moreover, in the data set with H9 [3], 2.7 µg/mL (≈ 10.3 µM) corresponded to half-maximal inhibition (IC50).
In turn, `COc1cc2c(c3ccccc3n2C)c2c(NCCN3CCCCC3)nccc12` had an EC50 with H9 [1] of 0.005 µg/mL (≈ 0.0129 µM). The selectivity ratio in data set [2] was 47.9. Also, the IC50 in the data set with H9 [3] was 0.24 µg/mL (≈ 0.618 µM).
The matching figures for `COc1cc2c(c3ccccc3n2C)c2c(Cl)nccc12`: 0.19 µg/mL (≈ 0.64 µM), 136 and 26 µg/mL (≈ 87.6 µM).

Source of the values: ChEMBL document CHEMBL1132672, “Substituted 7H-pyrido[4,3-c]carbazoles with potent anti-HIV activity” (Bioorg Med Chem Lett, 1999).
